For three compounds, remaining binding results are on record in patent US10870647B2, “Imidazopyridine derivative, method for preparing same, and pharmaceutical composition containing same as active ingredient for preventing or treating cancer” (DAEGU-GYEONGBUK MEDICAL INNOVATION FOUNDATION, priority 2016, dated 2020).

SMILES strings stand for the structures.

Common to all, as to assay: Kinase selectivity, scanMAX Kinase assay panel (DiscoverX), % control at 1 uM
Common to all, as to format: binding

Assay [1] addresses T1, scanMAX Kinase assay panel (Homo sapiens, UniProt O94768).
T1 construct: purchased DiscoverX
T1 sequence (O94768 1-372): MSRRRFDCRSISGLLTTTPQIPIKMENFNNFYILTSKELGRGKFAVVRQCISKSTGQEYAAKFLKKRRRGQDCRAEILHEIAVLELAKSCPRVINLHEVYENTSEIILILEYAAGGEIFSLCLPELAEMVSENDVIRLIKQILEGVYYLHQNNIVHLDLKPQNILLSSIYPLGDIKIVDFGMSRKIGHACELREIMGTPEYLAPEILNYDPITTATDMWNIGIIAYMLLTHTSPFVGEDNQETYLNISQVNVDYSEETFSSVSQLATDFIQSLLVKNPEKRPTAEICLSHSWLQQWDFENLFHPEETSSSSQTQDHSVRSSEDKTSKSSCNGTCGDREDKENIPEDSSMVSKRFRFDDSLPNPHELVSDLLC
The conditions noted are these: DRAK2; 1 uM; read-out: Percent Control (%). A digest of the protocol:
(§1)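 Activity was called for kinases showing % control under 35, calculated from compound signal relative to positive and negative controls. Each compound screened at 1 uM against the DiscoverX scanMAX panel.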

For assay [2], the target named is T2, scanMAX Kinase assay panel (Homo sapiens, UniProt P21127).
T2 construct: purchased DiscoverX
The conditions noted are these: CDC2L1; 1 uM; read-out: Percent Control (%). A digest of the protocol: as §1

Assay [3] has as its target T3, scanMAX Kinase assay panel (Homo sapiens, UniProt P46734).
T3 construct: purchased DiscoverX
T3 sequence (P46734 1-347): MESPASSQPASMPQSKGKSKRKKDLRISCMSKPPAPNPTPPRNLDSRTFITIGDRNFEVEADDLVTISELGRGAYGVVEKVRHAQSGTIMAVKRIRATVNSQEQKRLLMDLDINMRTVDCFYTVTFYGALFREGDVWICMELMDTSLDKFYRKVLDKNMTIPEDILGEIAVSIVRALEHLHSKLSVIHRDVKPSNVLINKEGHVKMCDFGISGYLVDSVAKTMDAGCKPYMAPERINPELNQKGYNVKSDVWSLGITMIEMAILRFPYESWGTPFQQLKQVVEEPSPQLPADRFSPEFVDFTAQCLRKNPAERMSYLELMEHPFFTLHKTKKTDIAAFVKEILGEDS
Particulars: MEK3; 1 uM; read-out: Percent Control (%). Summed up:
as §1

Assay [4] has as its target T4, scanMAX Kinase assay panel (Homo sapiens, UniProt P49674).
T4 construct: purchased DiscoverX
The conditions noted are these: CSNK1E; 1 uM; read-out: Percent Control (%). A digest of the protocol: as §1

In assay [5] the target is T5, scanMAX Kinase assay panel (Homo sapiens, UniProt P49840).
T5 construct: purchased DiscoverX
T5 sequence (P49840 whole entry): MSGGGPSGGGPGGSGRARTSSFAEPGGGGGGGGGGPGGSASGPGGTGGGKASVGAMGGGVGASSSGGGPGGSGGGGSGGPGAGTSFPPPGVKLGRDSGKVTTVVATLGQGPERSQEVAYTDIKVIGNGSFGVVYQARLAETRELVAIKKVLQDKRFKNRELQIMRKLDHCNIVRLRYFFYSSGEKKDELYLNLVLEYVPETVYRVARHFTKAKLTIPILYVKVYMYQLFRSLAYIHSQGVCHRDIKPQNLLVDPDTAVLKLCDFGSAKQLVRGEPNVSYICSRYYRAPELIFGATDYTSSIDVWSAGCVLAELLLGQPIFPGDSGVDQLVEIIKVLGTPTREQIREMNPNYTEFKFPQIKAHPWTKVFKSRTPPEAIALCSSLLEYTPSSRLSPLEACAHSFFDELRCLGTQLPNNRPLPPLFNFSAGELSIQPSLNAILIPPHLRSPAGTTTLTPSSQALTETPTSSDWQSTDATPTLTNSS
The conditions noted are these: GSK3A; 1 uM; read-out: Percent Control (%). Summed up: as §1

Assay [6] deals with T6, scanMAX Kinase assay panel (Homo sapiens, UniProt P54646).
T6 construct: purchased DiscoverX
T6 sequence (P54646 whole entry): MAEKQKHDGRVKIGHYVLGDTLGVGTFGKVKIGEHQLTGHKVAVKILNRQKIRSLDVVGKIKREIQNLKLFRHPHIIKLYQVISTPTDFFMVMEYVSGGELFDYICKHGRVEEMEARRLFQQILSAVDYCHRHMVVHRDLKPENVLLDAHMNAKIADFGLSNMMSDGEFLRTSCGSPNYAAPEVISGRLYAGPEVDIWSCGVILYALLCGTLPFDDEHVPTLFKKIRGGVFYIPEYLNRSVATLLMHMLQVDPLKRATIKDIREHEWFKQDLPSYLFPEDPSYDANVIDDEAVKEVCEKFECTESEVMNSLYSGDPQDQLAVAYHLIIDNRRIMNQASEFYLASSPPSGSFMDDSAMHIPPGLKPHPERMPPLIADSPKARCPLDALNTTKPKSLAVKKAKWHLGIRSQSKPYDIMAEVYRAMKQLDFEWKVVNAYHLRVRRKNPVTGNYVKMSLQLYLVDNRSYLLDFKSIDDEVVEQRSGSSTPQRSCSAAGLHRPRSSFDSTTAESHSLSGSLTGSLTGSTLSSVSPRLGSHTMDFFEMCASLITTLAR
The conditions noted are these: AMPK-alpha2; 1 uM; read-out: Percent Control (%). A digest of the protocol: as §1

In assay [7] the target is T7, scanMAX Kinase assay panel (Homo sapiens, UniProt P54756).
T7 construct: purchased DiscoverX
T7 sequence (P54756 25-1037): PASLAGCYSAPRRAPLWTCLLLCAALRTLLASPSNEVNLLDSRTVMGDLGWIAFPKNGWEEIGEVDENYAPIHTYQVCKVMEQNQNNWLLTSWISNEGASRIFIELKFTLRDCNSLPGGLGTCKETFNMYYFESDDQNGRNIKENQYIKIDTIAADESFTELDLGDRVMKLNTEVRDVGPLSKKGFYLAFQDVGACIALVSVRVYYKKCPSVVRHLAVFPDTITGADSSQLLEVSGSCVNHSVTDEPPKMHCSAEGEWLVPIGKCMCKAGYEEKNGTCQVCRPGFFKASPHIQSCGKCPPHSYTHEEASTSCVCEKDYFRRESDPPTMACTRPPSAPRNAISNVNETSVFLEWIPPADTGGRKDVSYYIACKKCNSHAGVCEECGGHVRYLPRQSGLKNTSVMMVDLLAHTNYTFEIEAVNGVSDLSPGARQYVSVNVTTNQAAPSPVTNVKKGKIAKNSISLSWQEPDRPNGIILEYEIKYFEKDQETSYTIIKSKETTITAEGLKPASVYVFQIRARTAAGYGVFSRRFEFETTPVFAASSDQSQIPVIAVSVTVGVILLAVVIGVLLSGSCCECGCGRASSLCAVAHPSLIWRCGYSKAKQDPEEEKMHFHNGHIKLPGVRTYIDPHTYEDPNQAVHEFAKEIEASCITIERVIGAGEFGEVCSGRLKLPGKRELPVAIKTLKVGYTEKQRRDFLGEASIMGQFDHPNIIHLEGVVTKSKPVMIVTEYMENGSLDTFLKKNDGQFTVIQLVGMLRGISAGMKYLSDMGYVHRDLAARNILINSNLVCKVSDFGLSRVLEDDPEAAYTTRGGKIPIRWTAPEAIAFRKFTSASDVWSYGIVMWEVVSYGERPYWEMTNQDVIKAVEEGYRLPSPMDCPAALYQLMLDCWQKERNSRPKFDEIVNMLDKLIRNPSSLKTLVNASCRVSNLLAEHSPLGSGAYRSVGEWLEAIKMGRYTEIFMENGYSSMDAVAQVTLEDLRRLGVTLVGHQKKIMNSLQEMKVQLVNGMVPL
Particulars: EPHA5; 1 uM; read-out: Percent Control (%). Summed up:
as §1

Assay [8] has as its target T8, scanMAX Kinase assay panel (Homo sapiens, UniProt Q5S007).
T8 construct: purchased DiscoverX
Particulars: LRRK2; 1 uM; read-out: Percent Control (%). Summed up:
as §1

Assay [9] concerns the target T9, scanMAX Kinase assay panel (Homo sapiens, UniProt Q96L34).
T9 construct: purchased DiscoverX
T9 sequence (Q96L34 1-752): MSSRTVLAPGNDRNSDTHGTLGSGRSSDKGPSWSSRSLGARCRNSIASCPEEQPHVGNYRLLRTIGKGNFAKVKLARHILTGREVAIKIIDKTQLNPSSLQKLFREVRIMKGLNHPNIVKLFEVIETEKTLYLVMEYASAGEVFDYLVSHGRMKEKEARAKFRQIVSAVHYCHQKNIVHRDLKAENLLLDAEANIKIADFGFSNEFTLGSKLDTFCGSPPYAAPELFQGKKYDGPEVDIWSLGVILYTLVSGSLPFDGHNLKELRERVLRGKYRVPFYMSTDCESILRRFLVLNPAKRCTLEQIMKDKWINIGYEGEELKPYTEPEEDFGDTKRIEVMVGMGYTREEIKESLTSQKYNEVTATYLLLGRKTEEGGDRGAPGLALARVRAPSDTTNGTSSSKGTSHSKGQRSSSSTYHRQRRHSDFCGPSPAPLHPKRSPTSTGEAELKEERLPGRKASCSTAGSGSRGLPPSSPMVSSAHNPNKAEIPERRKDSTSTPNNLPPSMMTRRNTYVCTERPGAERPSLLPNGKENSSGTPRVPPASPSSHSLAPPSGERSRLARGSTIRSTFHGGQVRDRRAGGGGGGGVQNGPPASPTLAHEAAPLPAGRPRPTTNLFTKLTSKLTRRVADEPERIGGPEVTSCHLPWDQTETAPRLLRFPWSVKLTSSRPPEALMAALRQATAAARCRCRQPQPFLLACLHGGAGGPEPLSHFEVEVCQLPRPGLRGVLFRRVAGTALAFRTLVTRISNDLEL
Particulars: MARK4; 1 uM; read-out: Percent Control (%). A digest of the protocol:
as §1

Assay [10] deals with T10, scanMAX Kinase assay panel (Homo sapiens, UniProt Q96Q40).
T10 construct: purchased DiscoverX
The conditions noted are these: PFTAIRE2; 1 uM; read-out: Percent Control (%). Summed up: as §1

T4 sequence (P49674 whole entry): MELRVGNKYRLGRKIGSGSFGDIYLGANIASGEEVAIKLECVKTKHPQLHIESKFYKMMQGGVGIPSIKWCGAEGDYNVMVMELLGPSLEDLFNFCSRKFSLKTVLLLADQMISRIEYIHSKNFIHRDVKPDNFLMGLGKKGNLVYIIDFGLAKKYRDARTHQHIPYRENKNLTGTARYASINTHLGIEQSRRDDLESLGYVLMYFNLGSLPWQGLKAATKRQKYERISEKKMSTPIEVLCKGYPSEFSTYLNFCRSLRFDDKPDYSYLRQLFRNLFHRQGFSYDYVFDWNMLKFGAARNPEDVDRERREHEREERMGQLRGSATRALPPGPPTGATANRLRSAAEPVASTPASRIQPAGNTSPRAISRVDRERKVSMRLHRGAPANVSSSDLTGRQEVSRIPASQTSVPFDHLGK
T8 sequence (Q5S007 whole entry): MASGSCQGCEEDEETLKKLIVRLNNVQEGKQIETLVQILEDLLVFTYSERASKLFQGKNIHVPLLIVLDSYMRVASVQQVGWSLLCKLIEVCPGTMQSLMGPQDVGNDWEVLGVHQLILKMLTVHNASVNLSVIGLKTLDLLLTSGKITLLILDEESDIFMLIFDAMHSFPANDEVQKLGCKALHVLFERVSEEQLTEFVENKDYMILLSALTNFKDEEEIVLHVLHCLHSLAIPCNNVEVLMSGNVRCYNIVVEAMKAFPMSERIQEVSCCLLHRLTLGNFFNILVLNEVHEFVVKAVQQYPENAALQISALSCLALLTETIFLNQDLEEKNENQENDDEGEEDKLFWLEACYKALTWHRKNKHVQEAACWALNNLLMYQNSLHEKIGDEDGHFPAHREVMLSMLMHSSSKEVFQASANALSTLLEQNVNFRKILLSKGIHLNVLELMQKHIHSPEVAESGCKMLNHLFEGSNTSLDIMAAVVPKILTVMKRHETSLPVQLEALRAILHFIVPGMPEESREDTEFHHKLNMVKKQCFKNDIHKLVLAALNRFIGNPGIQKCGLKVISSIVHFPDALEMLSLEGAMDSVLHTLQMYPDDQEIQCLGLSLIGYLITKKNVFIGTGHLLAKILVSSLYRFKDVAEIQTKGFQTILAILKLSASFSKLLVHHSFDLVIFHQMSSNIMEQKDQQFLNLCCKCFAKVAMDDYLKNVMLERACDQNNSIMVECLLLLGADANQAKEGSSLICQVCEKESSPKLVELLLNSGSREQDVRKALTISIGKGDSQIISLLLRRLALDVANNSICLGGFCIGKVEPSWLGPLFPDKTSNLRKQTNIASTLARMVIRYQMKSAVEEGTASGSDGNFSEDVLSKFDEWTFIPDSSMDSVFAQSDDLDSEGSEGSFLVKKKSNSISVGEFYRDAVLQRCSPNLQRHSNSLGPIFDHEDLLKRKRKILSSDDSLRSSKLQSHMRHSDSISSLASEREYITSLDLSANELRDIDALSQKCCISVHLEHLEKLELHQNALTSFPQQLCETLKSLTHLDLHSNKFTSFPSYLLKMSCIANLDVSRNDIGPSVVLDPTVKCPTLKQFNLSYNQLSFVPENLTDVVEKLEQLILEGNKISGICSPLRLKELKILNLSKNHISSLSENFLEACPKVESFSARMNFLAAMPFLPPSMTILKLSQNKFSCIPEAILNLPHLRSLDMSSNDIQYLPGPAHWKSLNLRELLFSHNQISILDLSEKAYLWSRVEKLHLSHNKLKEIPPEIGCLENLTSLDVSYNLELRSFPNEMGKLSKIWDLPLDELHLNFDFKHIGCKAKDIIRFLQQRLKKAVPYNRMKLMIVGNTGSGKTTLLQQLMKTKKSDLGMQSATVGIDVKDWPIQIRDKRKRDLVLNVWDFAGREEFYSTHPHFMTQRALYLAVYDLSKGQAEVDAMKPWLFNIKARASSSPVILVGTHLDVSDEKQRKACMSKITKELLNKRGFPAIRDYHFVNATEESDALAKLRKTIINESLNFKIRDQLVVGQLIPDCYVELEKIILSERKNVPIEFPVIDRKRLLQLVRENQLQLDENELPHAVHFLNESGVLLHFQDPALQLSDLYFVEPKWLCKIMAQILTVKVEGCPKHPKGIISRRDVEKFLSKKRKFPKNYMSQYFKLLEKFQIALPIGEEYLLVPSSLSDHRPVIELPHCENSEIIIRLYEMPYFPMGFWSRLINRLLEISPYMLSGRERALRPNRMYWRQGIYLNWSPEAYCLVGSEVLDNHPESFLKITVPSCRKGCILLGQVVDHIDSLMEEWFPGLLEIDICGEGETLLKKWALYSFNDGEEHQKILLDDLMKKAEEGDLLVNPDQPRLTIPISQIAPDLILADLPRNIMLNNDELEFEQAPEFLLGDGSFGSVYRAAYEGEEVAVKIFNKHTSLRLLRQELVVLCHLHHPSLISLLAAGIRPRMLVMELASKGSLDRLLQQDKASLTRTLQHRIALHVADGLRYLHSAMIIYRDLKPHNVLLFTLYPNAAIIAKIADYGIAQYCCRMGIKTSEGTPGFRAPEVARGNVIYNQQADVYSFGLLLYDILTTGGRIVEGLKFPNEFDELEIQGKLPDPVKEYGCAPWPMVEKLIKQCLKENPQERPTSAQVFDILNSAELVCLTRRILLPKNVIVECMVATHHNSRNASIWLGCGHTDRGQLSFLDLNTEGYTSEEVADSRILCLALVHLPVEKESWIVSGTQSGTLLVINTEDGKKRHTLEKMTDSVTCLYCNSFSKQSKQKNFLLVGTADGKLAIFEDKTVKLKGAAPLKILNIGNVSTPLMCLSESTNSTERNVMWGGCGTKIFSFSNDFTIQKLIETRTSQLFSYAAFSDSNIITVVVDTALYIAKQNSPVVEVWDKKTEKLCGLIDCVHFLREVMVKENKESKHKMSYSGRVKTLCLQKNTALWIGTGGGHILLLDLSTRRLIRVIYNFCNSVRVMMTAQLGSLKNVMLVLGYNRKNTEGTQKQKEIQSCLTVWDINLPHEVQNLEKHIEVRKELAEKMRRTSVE

As for `Cc1ccc(C(=O)Nc2ccc(CN3CCN(C)CC3)c(C(F)(F)F)c2)cc1C#Cc1cnc2c(Nc3cnn(C)c3)cccn12` [Example 1, 4-methyl-3-((8-((1-methyl-1H-pyrazol-4-yl)amino)imidazo[1,2-a]pyridin-3-yl)ethynyl)-N-(4-((4-methylpiperazin-1-yl)methyl)-3-(trifluoromethyl)phenyl)benzamide], the remaining binding at 1 µM in assay [1] is 90%; in assay [2] it was 20%; in assay [3], 81%; in assay [4] it was 90%; in [5], 76%; in assay [6], 4%. Moreover, the remaining binding at 1 µM in [7] turned out to be 1%; in assay [8] it was 10%; in assay [9], 100%; in [10], 6%.

For `Cc1cn(-c2cc(NC(=O)c3ccc(C)c(C#Cc4cnc5c(Nc6cnn(C)c6)cccn45)c3)cc(C(F)(F)F)c2)cn1` [Example 12, 4-methyl-N-(3-(4-methyl-1H-imidazol-1-yl)-5-(trifluoromethyl)phenyl)-3-((8-((1-methyl-1H-pyrazol-4-yl)amino)imidazo[1,2-a]pyridin-3-yl)ethynyl)benzamide], the remaining binding at 1 µM in assay [1] worked out at 95%; in assay [2], 80%; in assay [3], 100%; in assay [4], 99%; in [5], 100%; in [6], 79%. Besides, the remaining binding at 1 µM in assay [7] was found to be 31%; in assay [8] it was 100%; in assay [9] it was 86%; in [10], 75%.

Consider `Cc1ccc(NC(=O)C2(C(=O)Nc3ccc(F)cc3)CC2)cc1C#Cc1cnc2c(Nc3cnn(C(C)C)c3)cccn12` [Example 78], for which the remaining binding at 1 µM in assay [1] was found to be 100%; in [2], 100%; in assay [3] it was 96%; in assay [4] it was 94%; in [5], 100%; in assay [6] it was 100%. For the same compound, the remaining binding at 1 µM was 100% in [7], 95% in [8], 97% in assay [9] and 100% in [10].
